# Data published in paper PMC10384010, “Chromatographic Data in Statistical Analysis of BBB Permeability Indices” (Membranes, 2023).
# Read-outs that look alike come from different tables or passages of the source.
# Experiments:
# [1] = entering the CNS / not entering the CNS; ref Drugbank [36]; cited from earlier work
# [2] = Normal-phase TLC on silica gel 60 F254 (Rf); assay type: physicochemical; settings: water:methanol:acetonitrile 60:20:20, ammonium acetate pH 7.4
# Description: (§1) The purity of the isolated substances was checked by TLC chromatography and densitometric scanning.
# (§2) APIs were subjected to chromatographic in column (HPLC) and thin layer (TLC) formats. TLC chromatography was carried out on 20 cm × 20 cm glass plates by Merck, covered with silica gel and the addition of a fluorescent indicator. Merck TLC silica gel 60 F254 was used for the normal phase (NP). In the reverse phase (RP), RP-2 silanized plates were used (Merck TLC Silica gel 60 RP-2 F254, silanized). The mobile phase was buffered with ammonium acetate to pH 7.4 (LACH-NER, ammonium acetate).
# (§3) Plates, after developing the chromatograms, were scanned using a densitometer (Desaga CD 60) with an analytical wavelength selected individually for drugs. The values of Rf (molecular descriptors: NP, RP) were determined.
# [3] = HPLC on IAM (immobilized artificial membrane) column, retention factor; assay type: physicochemical; settings: IAM.PC.DD.2 column; for k(IAM) retention factor: 10 mM phosphate buffer pH 7.4:acetonitrile 80:20; for logkIAM: logarithm of retention factor, phosphate buffer pH 7.4:acetonitrile 80:20
# Description: Chromatographic data also came from an experiment with a HPLC IAM (immobilized artificial membrane) column (Regis Technologies Inc.: IAM.PC.DD.2, 10 µm; 4.6 mm × 10 mm). The column contains a standard membrane consisting of a phospholipid bilayer. Organic solvents (acetonitrile and methanol) and water (J.T. Baker HPLC) were used in HPLC. Sigma phosphate buffered saline tablets were used to prepare the phosphate buffer. The mobile phase was a mixture of 10 mM phosphate buffer at pH 7.4 and acetonitrile in the ratio of 80:20 (v/v) [35]. The mobile phase flow was set at 0.5 mL/min; detection was carried out with a UV–Vis detector. The obtained values of the retention factor (k IAM) were transformed into a logarithmic form and entered into the statistical analysis (descriptor: log k IAM).
# [4] = cited from earlier work
# [5] = Reversed-phase TLC on RP-2 silanized plates (Rf); assay type: physicochemical; settings: silica gel 60 RP-2 F254 silanized; water:methanol:acetonitrile 60:20:20, ammonium acetate pH 7.4
# Description: as §1, §2, §3
# [6] = plasma protein binding, given as fraction, ref Drugbank
SMILES,CNS+/- [1],NP (Rf from NP TLC plate) [2],k(IAM) retention factor [3],logkIAM [3],PB (protein binding) ([4]; plasma),RP (Rf from RP-2 TLC plate) [5],"PB (protein binding) [4, 6]"
CC(=O)CC(c1ccc([N+](=O)[O-])cc1)c1c(O)c2ccccc2oc1=O (stereo not shown) [acenocumarol],1,0.99,0.53,-0.27,,,
CC1(C)S[C@@H]2[C@H](NC(=O)[C@H](N)c3ccc(O)cc3)C(=O)N2[C@H]1C(=O)O [amoxilcillin],,0.68,0.05,-1.32,0.2,0.99,
CNCCc1ccccn1 [betahistine],1,0.17,0.90,-0.05,,0.31,
CCOCCn1c(C2CCN(CCc3ccc(C(C)(C)C(=O)O)cc3)CC2)nc2ccccc21 [bilastine],,0.46,0.55,-0.26,,0.76,0.87
OC(CCN1CCCCC1)(c1ccccc1)C1CC2C=CC1C2 (stereo not shown) [biperiden],,0.68,41.47,1.62,,0.87,0.6
CC(C)C[C@H]1C(=O)N2CCC[C@H]2[C@]2(O)O[C@](NC(=O)[C@@H]3C=C4c5cccc6[nH]c(Br)c(c56)C[C@H]4N(C)C3)(C(C)C)C(=O)N12 [bromocriptine],,0.95,12.69,1.10,,0.69,0.93
CCCCCOC(=O)Nc1nc(=O)n([C@@H]2O[C@H](C)[C@@H](O)[C@H]2O)cc1F [capecitabine],1,0.92,1.11,0.04,,0.9,
C=CCN1C[C@H](C(=O)N(CCCN(C)C)C(=O)NCC)C[C@@H]2c3cccc4[nH]cc(c34)C[C@H]21 [carbegoline],,0.68,17.05,1.23,0.41,0.68,
CCN(CC)C(=O)Nc1ccc(OCC(O)CNC(C)(C)C)c(C(C)=O)c1 (stereo not shown) [celiprolol],,0.45,5.87,0.77,,0.75,0.275
CC[C@H]1OC(=O)[C@H](C)[C@@H](O[C@H]2C[C@@](C)(OC)[C@@H](O)[C@H](C)O2)[C@H](C)[C@@H](O[C@@H]2O[C@H](C)C[C@H](N(C)C)[C@H]2O)[C@](C)(OC)C[C@@H](C)C(=O)[C@H](C)[C@@H](O)[C@]1(C)O [clarithromycin],0,0.99,0.10,-1.02,,0.83,
O=C(O)C1N=C(c2ccccc2)c2cc(Cl)ccc2NC1=O (stereo not shown) [clorazepate],,0.94,4.88,0.69,,0.81,0.975
CN(C)CCOC(c1ccccc1)c1ccccc1 [diphenhydramin],,0.42,3.66,0.56,0.985,0.58,
CCOc1ccc(/C=C2\NCCc3cc(OCC)c(OCC)cc32)cc1OCC [drotaverine],1,0.61,31.24,1.49,,0.55,
CN1CCC[C@@H]1Cc1c[nH]c2ccc(CCS(=O)(=O)c3ccccc3)cc12 [eletriptan],1,,,,,,
C[C@]12CC[C@@H]3c4ccc(OC(=O)c5ccccc5)cc4CC[C@H]3[C@@H]1CC[C@@H]2O [estradiol benzoate],,0.97,6.92,0.84,,0.63,0.95
C[C@]12CC[C@@H]3c4ccc(O)cc4CC[C@H]3[C@@H]1CCC2=O [estrone],,0.99,29.40,1.47,,0.79,0.95
CC[C@@H](CO)NCCN[C@@H](CC)CO [ethambutol],0,0.19,,,,0.97,
O[C@@H]1CO[C@H]2[C@@H]1OC[C@@H]2O [isosorbide],1,0.26,0.21,-0.68,,0.54,
C[C@H]1COc2c(N3CCN(C)CC3)c(F)cc3c(=O)c(C(=O)O)cn1c23 [levofloxacin],,0.17,0.90,-0.04,,0.27,0.31

SMILES,CNS+/- [1],NP (Rf from NP TLC plate) [2],k(IAM) retention factor [3],logkIAM [3],PB (protein binding) ([4]; plasma),RP (Rf from RP-2 TLC plate) [5],"PB (protein binding) [4, 6]"
CN1CCN=C(c2ccccc2)c2cc(Cl)ccc21 [medazepam],,0.91,34.65,1.54,,0.66,0.99
CN(C)C(=N)N=C(N)N [metformin],1,0.21,0.34,-0.47,,0.78,
COCCc1ccc(OCC(O)CNC(C)C)cc1 (stereo not shown) [metoprolol],0,0.48,4.32,0.64,,0.28,
OC(CNCC(O)C1CCc2cc(F)ccc2O1)C1CCc2cc(F)ccc2O1 (stereo not shown) [nebivolol],1,0.75,,,,0.4,
C[C@]12C=CC(=O)C=C1CC[C@@H]1[C@@H]2[C@@H](O)C[C@@]2(C)[C@H]1CC[C@]2(O)C(=O)CO [prednizolone],,0.94,2.84,0.45,0.9,0.87,
CC(=O)[C@H]1CC[C@H]2[C@@H]3CCC4=CC(=O)CC[C@]4(C)[C@H]3CC[C@]12C [progesterone],,0.96,34.99,1.54,,0.71,0.975
CNC(=C[N+](=O)[O-])NCCSCc1ccc(CN(C)C)o1 [ranitidine],0,0.24,0.67,-0.17,,0.81,
CO[C@H]1/C=C/O[C@@]2(C)Oc3c(C)c(O)c4c(O)c(c(/C=N/N5CCN(C)CC5)c(O)c4c3C2=O)NC(=O)/C(C)=C\C=C\[C@H](C)[C@H](O)[C@@H](C)[C@@H](O)[C@@H](C)[C@H](OC(C)=O)[C@@H]1C [rifampicin],,0.73,,,,0.95,0.89
CC[C@H]1OC(=O)[C@H](C)[C@@H](O[C@H]2C[C@@](C)(OC)[C@@H](O)[C@H](C)O2)[C@H](C)[C@@H](O[C@@H]2O[C@H](C)C[C@H](N(C)C)[C@H]2O)[C@](C)(O)C[C@@H](C)/C(=N\OCOCCOC)[C@H](C)[C@@H](O)[C@]1(C)O [roxitromicin],,0.91,,,0.96,0.8,
Cc1cncc(CN2CCC(=C3c4ccc(Cl)cc4CCc4cccnc43)CC2)c1 [rupatadine],,0.42,9.29,0.97,,0.55,0.985
CN[C@H]1CC[C@@H](c2ccc(Cl)c(Cl)c2)c2ccccc21 [sertraline],,0.53,42.89,1.63,,0.49,0.98
CCCc1nn(C)c2c(=O)[nH]c(-c3cc(S(=O)(=O)N4CCN(C)CC4)ccc3OCC)nc12 [sildenafil],1,0.69,14.26,1.15,,0.77,
CC(=O)S[C@@H]1CC2=CC(=O)CC[C@]2(C)[C@H]2CC[C@@]3(C)[C@@H](CC[C@@]34CCC(=O)O4)[C@H]12 [spironolactone],,0.98,13.38,1.13,,0.78,0.9
CCN1CCCC1CNC(=O)c1cc(S(N)(=O)=O)ccc1OC (stereo not shown) [sulpiride],,0.27,1.66,0.22,,0.85,0.4
COc1cc(Cc2cnc(N)nc2N)cc(OC)c1OC [trimethoprim],1,0.57,,,,,
CCN(Cc1ccncc1)C(=O)C(CO)c1ccccc1 (stereo not shown) [tropicamid],,0.85,1.06,0.03,0.45,0.83,
CN(C)CCc1c[nH]c2ccc(C[C@H]3COC(=O)N3)cc12 [zolmitriptane],,0.31,3.30,0.52,0.25,0.86,
CN1CCN(C(=O)OC2c3nccnc3C(=O)N2c2ccc(Cl)cn2)CC1 (stereo not shown) [zopiclone],,0.96,0.91,-0.04,,0.84,0.45
